Results: US20250082760A1 (priority 2020, published 2025)
Where a name gives a salt, the structure may show the parent alone.

Key:
[1] = stability (degradation test) in acidified plasma; assay type: in vitro ADME, rat; conditions: for Sample Peak Average: rat, 5 μmol/ml
Procedure: • a: Compound 5 prepared in Example 5 was dissolved in purified water to prepare solution A with a concentration of 10 mg/ml; 150 μl of solution A was added to 660 μl of pre-warmed plasma (37° C.), and the pH was adjusted with 0.1% acetic acid to dissolve the sample clear to obtain solution B; • b: Solution B (5 μmol/ml) was stirred in a water bath at 37° C. for a certain period of time (1 min, 2 min, 4 min, 8 min, 16 min, 30 min, 1 h, 2 h, 4 h) and 50 μl was sampled at each time point; • c: 50 μl of the sampled solution was added to 950 μl methanol (0.1% AcH) to precipitate plasma proteins, resulting in mixture C. • d: The mixture C was vortexed for 1 s, centrifuged at 12000 r for 3 min, and the supernatant was taken for testing.
(§1) Liquid phase detection: take 10 μl of the supernatant after the above centrifugation into a sample for measurement.

[2] = test system: lipopolysaccharide-induced depression mouse model; assay: lipopolysaccharide-induced depression mouse model (open field, forced swimming test, body weight); assay type: in vivo, ICR mice
Procedure: Positive drug: fluoxetine hydrochloride capsule (specification 20 mg), take the content in a mortar, add 40 ml of 0.5% CMC-Na solution while grinding, to a suspended state, set EP tube for use; test drug (compound 5): dissolve into 5, 10, and 20 mg/ml solutions in distilled water, respectively, and put them in EP tubes for later use; modeling drug (LPS): take a frozen lipopolysaccharide PBS solution (1.2 mg: 1.2 ml), and after thawing Use a pipette to take 1 ml into the EP tube, replace with a new pipette tip and pipette 9 ml of normal saline into the EP tube, shake well for use.
Except for the first group (blank control group), other groups of animals were intraperitoneally injected with LPS 2 h before the last administration on the 7th day to the mice in the model group, the positive drug group, and the low, middle and high dose groups of the test drug.
The first group was the blank control group, which was given 0.5% CMC-Na 0.2 ml/20 g by gavage; the second group was the model group, which was given 0.5% CMC-Na by gavage; the third group was the positive drug group, which was given by gavage Flunarizine hydrochloride (sibilin) 1 mg/kg; the fourth group was the low-dose group of the test drug, which was given 100 mg/kg of compound 5 by gavage; the fifth group was the medium-dose group of the test drug, which was given 200 mg/kg by gavage. kg of compound 5; the sixth group was the test drug high-dose group, and 400 mg/kg of compound 5 was administered by gavage. The drug was administered for one week, and the second to sixth groups were intraperitoneally injected with 1 mg/kg (0.2 ml/20 g) of LPS on the seventh day to establish a model.
On the 7th day, before the last administration and modeling, the effect of the drug on the spontaneous activity of the mice should be investigated, and it is excluded that the drug increases the spontaneous activity of the mice and interferes with the immobility time in the forced swimming experiment. The total migration distance of each mouse in the open field (50×50×50 cm) within 5 min was calculated using the open field experimental instrument and related computer software. Before the data collection, each mouse was given 5 min to familiarize with the open field environment, after each mouse was tested, its excrement was removed and the odor was eliminated with an alcohol spray bottle.
Because the air temperature is low, it is appropriate to control the water temperature by adding hot water to the cylinder.
In the spontaneous activity, the behavioral index selects the total migration distance of mice in the open field within 5 minutes,
by tracking the movement trajectory of mice through monitoring devices, and using computer software, the total distance of movement can be directly obtained; in the FST experiment, the mice were placed in a into a transparent cylinder filled with warm water (about 25° C.) for 6 minutes, the mice will experience struggling, swimming and floating behaviors, the time when the mice stop struggling to float on the water surface is identified as a state of despair caused by depression, by using monitoring equipment and computer software to statistically analyze the state of mice after 4 minutes, the total “Immobility time” can be directly obtained.

[3] = stability (degradation test) in fresh rat plasma; assay type: in vitro ADME; conditions: for Sample Peak Average: rat, 5 μmol/ml
Procedure: Experimental sample: compound 5 prepared in Example 5; 5% glucose (Xi′an Jingxi Shuanghe Pharmaceutical Co., Ltd.); rat plasma (source: Animal Center, Department of Medicine, Xi′an Jiaotong University) Fresh plasma sample preparation: • a: Compound 5 prepared in Example 5 was dissolved in purified water to prepare solution A with a concentration of 10 mg/ml; 150 μl of solution A was added to 660 μl of preheated plasma (37° C.) to obtain solution B; • b: Solution B (5 μmol/ml) was stirred in a 37° C. water bath for a certain period of time (1 min, 2 min, 4 min, 8 min, 16 min, 30 min, 1 h, 2 h, 4 h) and 50 μl was sampled at each time point; • c: 50 μl of sampled solution) was added to 950 μl of methanol (0.1% AcH) to precipitate plasma proteins, resulting in mixture C; • d: The mixture C was vortexed for 1 s, centrifuged at 12000 r for 3 min, and the supernatant was taken for testing.
as §1

With `CC(C)c1cccc(C(C)C)c1OC(=O)CC1(CN(C)C)CCCCC1` [Compound 5, 2,6-diisopropylphenyl 2-(1-((dimethylamino)methyl)cyclohexyl)acetate hydrochloride] the “degradation / stability in acidified plasma” value ([1]; plasma acidified with 0.1% acetic acid, 37° C., up to 2 h) was “not significantly degraded”, the “Sample Peak Average” value ([1]; 1 min) was 196752060 and the “Sample Peak Average” value ([1]; 2 min) was 189140125. For the same compound, the “Sample Peak Average” value ([1]; 4 min) was 184526452, the “Sample Peak Average” value ([1]; 8 min) was 182379068 and the “Sample Peak Average” value ([1]; 16 min) was 176475001. The “Sample Peak Average” value ([1]; 30 min) was 179508039, the “Sample Peak Average” value ([1]; 1 h) was 175087504 and the “Sample Peak Average” value ([1]; 2 h) was 171193983. For the same compound, the “effect on body weight of mice” value ([2]; compound 5 100, 200, 400 mg/kg and positive drug, gavage for one week) was “no significant effect”, the “alleviation of depressive behavior caused by LPS” value ([2]; compound 5 100, 200, 400 mg/kg and positive drug, gavage for one week, no statistical difference found) was “certain alleviation effect” and the “spontaneous activity: total migration distance in open field within 5 minutes” value ([2]; reference blank group, day 7 before last administration, all dose groups, p>0.05) was “no significant effect”. For the same compound, the FST immobility time ([2]; reference model group, compound 5 100, 200, 400 mg/kg and positive drug, gavage for one week, 4 h after LPS) was “not significantly different (p>0.05)”, the “degradation / stability in fresh plasma” value ([3]; fresh rat plasma, 37° C., up to 4 h) was “not significantly degraded” and the “Sample Peak Average” value ([3]; 1 min) was 203062103. For the same compound, the “Sample Peak Average” value ([3]; 2 min) was 181706084, the “Sample Peak Average” value ([3]; 4 min) was 161303805 and the “Sample Peak Average” value ([3]; 8 min) was 178769005. For the same compound, the “Sample Peak Average” value ([3]; 16 min) was 189298224, the “Sample Peak Average” value ([3]; 1 h) was 230407155 and the “Sample Peak Average” value ([3]; 2 h) was 260803581. The “Sample Peak Average” value ([3]; 4 h) was 246523592.
